Legend:
[1] = human patients with solid tumors, Phase I clinical trials; cited from earlier work
[2] = Degradation products in HPLC chromatograms of degraded samples; format: physicochemical
Text: The major degradation product of tezacitabine seen in HPLC chromatograms of degraded samples is cytosine. Based on this, but without limitation to any specific theory, the mechanism of degradation is believed to involve hydrolysis of the glycosidic bond between the […] ring and the sugar ring. This hydrolysis reaction is believed to occur rapidly at low pH but much less rapidly at high pH. The liberated sugar moiety is believed subsequently to undergo rapid degradation to a spectrum of products, one or more of which are highly acidic as well as being colored. The cytosine may also further degrade to acid-producing and/or color-producing species. The degradation, therefore, has a propensity to become autocatalytic, as the liberated acid species would tend to lower the pH, thus accelerating the degradation of previously undegraded tezacitabine molecules.
Degradation of tezacitabine can readily be monitored by the use of high pressure liquid chromatography (HPLC) methods which separate the drug from its degradation products and quantitate the amount of intact drug remaining in the solution. Typically such studies are performed by filling aliquots of various tezacitabine solutions into appropriate containers (e.g., stoppered glass vials or sealed ampoules) and storing these samples for various periods of time under various storage conditions. […]

[3] = Stability of FMdC solution 10 mg/mL in various buffer systems at 40° C. (Example 4, HPLC); format: physicochemical; details: for pH: 10 mg/mL
Protocol: In this study the stability of FMdC solution 10 mg/mL was studied in various buffer systems. FMdC solutions were made up and pH adjusted to target with sodium hydroxide. Solution samples were placed in stoppered glass vials and stored at 40° C. FMdC content was assessed at various times using the HPLC method described in Example 3 above.

major degradation product [2]: cytosine | pH ([3]; 20 mM TRIS, 0 mon): 9.42 | pH ([3]; 20 mM TRIS, 1 mon): 9.24 | pH ([3]; 20 mM TRIS, 2 mon): 9.05 | pH ([3]; 20 mM TRIS, 3 mon): 8.89 | pH ([3]; 20 mM TRIS, 4 mon): 8.58 | pH ([3]; 20 mM glycine, 0 mon): 9.60 | pH ([3]; 20 mM glycine, 1 mon): 9.32 | pH ([3]; 20 mM glycine, 2 mon): 9.24 | pH ([3]; 20 mM glycine, 3 mon): 9.11 | pH ([3]; 20 mM glycine, 4 mon): 8.86 | pH ([3]; 20 mM sodium phosphate, 0 mon): 9.36 | pH ([3]; 20 mM sodium phosphate, 1 mon): 8.32 | pH ([3]; 20 mM sodium phosphate, 2 mon): 7.76 | pH ([3]; 20 mM sodium phosphate, 3 mon): 7.72 | pH ([3]; 20 mM sodium phosphate, 4.7 mon): 4.65 | pH ([3]; 100 mM sodium phosphate, 0 mon): 9.44 | pH ([3]; 100 mM sodium phosphate, 1 mon): 9.14 | pH ([3]; 100 mM sodium phosphate, 2 mon): 8.69 | pH ([3]; 100 mM sodium phosphate, 3 mon): 8.47 | pH ([3]; 100 mM sodium phosphate, 4 mon): 8.18 | pH ([3]; 100 mM sodium phosphate, 6 mon): 7.80 | pH ([3]; 100 mM sodium phosphate, 9 mon): 7.14
Structure (SMILES): Nc1ccn([C@@H]2O[C@H](CO)[C@@H](O)/C2=C\F)c(=O)n1 [FMdC, (E)-2′-deoxy-2′-(fluoromethylene)cytidine]
tolerability [1]: well tolerated | comparison of buffers in stabilizing FMdC ([3]; same buffer concentrations (20 mM)): glycine and TRIS are superior to phosphate

— patent publication US20030171329A1, “Stable compositions comprising tezacitabine” (priority 2002, published 2003)
